Reference: PubChem BioAssay AID1918991 (Molecular Pharmacology Branch, DTP, NCI, 2023)
One block for each compound: values may come before it.

Test system: 186277-243-T-J2-PDC complex spheroid growth
Experiment: Anticancer human tumor 186277-243-T-J2-PDC patient-derived colon adenocarcinoma cell line growth inhibition [AhR]
Conditions: for IC50: curve of first compound; for viability, T/C: stronger effect = lower value
How it was run: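 Complex tumor spheroids co-cultured with HUVEC and human MSC stroma; AhR antagonists tested in combination with standard-of-care and investigational agents. Top concentration at or near clinical Cmax (else 10 microM), half-log dilutions; growth expressed as percent test/control.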

[1] = second compound 0.1 µM, first compound 0.0316 µM
[2] = second compound 0.1 µM, first compound 0.1 µM
[3] = second compound 0.1 µM, first compound 0.316 µM
[4] = second compound 0.1 µM, first compound 1 µM
[5] = second compound 0.1 µM, first compound 3.16 µM
[6] = second compound 0.1 µM, first compound 10 µM
[7] = second compound 0.316 µM, first compound 0.0316 µM
[8] = second compound 0.316 µM, first compound 0.1 µM
[9] = second compound 0.316 µM, first compound 0.316 µM
[10] = second compound 0.316 µM, first compound 1 µM
[11] = second compound 0.316 µM, first compound 3.16 µM
[12] = second compound 0.316 µM, first compound 10 µM
[13] = second compound 1 µM, first compound 0.0316 µM
[14] = second compound 1 µM, first compound 0.1 µM
[15] = second compound 1 µM, first compound 0.316 µM
[16] = second compound 1 µM, first compound 1 µM
[17] = second compound 1 µM, first compound 3.16 µM
[18] = second compound 1 µM, first compound 10 µM
[19] = second compound 3.16 µM, first compound 0.0316 µM
[20] = second compound 3.16 µM, first compound 0.1 µM
[21] = second compound 3.16 µM, first compound 0.316 µM
[22] = second compound 3.16 µM, first compound 1 µM
[23] = second compound 3.16 µM, first compound 3.16 µM
[24] = second compound 3.16 µM, first compound 10 µM
[25] = second compound 10 µM, first compound 0.0316 µM
[26] = second compound 10 µM, first compound 0.1 µM
[27] = second compound 10 µM, first compound 0.316 µM
[28] = second compound 10 µM, first compound 1 µM
[29] = second compound 10 µM, first compound 3.16 µM
[30] = second compound 10 µM, first compound 10 µM
[31] = second compound 0.1 µM, first compound 0.00949 µM
[32] = second compound 0.1 µM, first compound 0.03 µM
[33] = second compound 0.1 µM, first compound 0.0949 µM
[34] = second compound 0.1 µM, first compound 0.3 µM
[35] = second compound 0.316 µM, first compound 0.00949 µM
[36] = second compound 0.316 µM, first compound 0.03 µM
[37] = second compound 0.316 µM, first compound 0.0949 µM
[38] = second compound 0.316 µM, first compound 0.3 µM
[39] = second compound 1 µM, first compound 0.00949 µM
[40] = second compound 1 µM, first compound 0.03 µM
[41] = second compound 1 µM, first compound 0.0949 µM
[42] = second compound 1 µM, first compound 0.3 µM
[43] = second compound 3.16 µM, first compound 0.00949 µM
[44] = second compound 3.16 µM, first compound 0.03 µM
[45] = second compound 3.16 µM, first compound 0.0949 µM
[46] = second compound 3.16 µM, first compound 0.3 µM
[47] = second compound 10 µM, first compound 0.00949 µM
[48] = second compound 10 µM, first compound 0.03 µM
[49] = second compound 10 µM, first compound 0.0949 µM
[50] = second compound 10 µM, first compound 0.3 µM
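Further: spheroids exposed to compounds for seven days before the viability read.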
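Wherever viability, T/C is given: luminescent signal used as a stand-in for viable cell amount; 100% = DMSO vehicle control wells.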

- IC50 (second compound 0.1 µM): 7460 nM
- IC50 (second compound 0.316 µM): 6900 nM
- IC50 (second compound 1 µM): 7320 nM
- IC50 (second compound 3.16 µM): 6940 nM
- IC50 (second compound 10 µM): 6270 nM
SMILES: CC1(C)CCC(CN2CCN(c3ccc(C(=O)NS(=O)(=O)c4ccc(NCC5CCOCC5)c([N+](=O)[O-])c4)c(Oc4cnc5[nH]ccc5c4)c3)CC2)=C(c2ccc(Cl)cc2)C1 + Cc1ccccc1N=Nc1ccc(NC(=O)c2ccnn2C)c(C)c1
- viability, T/C [1]: 95.1%
- viability, T/C [2]: 98.9%
- viability, T/C [3]: 115%
- viability, T/C [4]: 110%
- viability, T/C [5]: 103%
- viability, T/C [6]: 31.8%
- viability, T/C [7]: 94.1%
- viability, T/C [8]: 108%
- viability, T/C [9]: 96.4%
- viability, T/C [10]: 100%
- viability, T/C [11]: 87.9%
- viability, T/C [12]: 31.7%
- viability, T/C [13]: 103%
- viability, T/C [14]: 99.3%
- viability, T/C [15]: 110%
- viability, T/C [16]: 98.2%
- viability, T/C [17]: 110%
- viability, T/C [18]: 29.8%
- viability, T/C [19]: 91.3%
- viability, T/C [20]: 91.8%
- viability, T/C [21]: 100%
- viability, T/C [22]: 94.3%
- viability, T/C [23]: 91.2%
- viability, T/C [24]: 30.9%
- viability, T/C [25]: 88.7%
- viability, T/C [26]: 82.5%
- viability, T/C [27]: 95.3%
- viability, T/C [28]: 92.5%
- viability, T/C [29]: 85.7%
- viability, T/C [30]: 25.5%

- IC50 (second compound 0.1 µM): > 300 nM
- IC50 (second compound 0.316 µM): > 300 nM
- IC50 (second compound 1 µM): > 300 nM
- IC50 (second compound 3.16 µM): > 300 nM
- IC50 (second compound 10 µM): > 300 nM
SMILES: Nc1ncn(C2CC(O)C(CO)S2)c(=O)n1 (stereo not given) + Cc1ccccc1N=Nc1ccc(NC(=O)c2ccnn2C)c(C)c1
- viability, T/C (second compound 0.1 µM, first compound 0.000949 µM): 97.2%
- viability, T/C (second compound 0.1 µM, first compound 0.003 µM): 123%
- viability, T/C [31]: 119%
- viability, T/C [32]: 104%
- viability, T/C [33]: 132%
- viability, T/C [34]: 111%
- viability, T/C (second compound 0.316 µM, first compound 0.000949 µM): 106%
- viability, T/C (second compound 0.316 µM, first compound 0.003 µM): 106%
- viability, T/C [35]: 105%
- viability, T/C [36]: 109%
- viability, T/C [37]: 109%
- viability, T/C [38]: 116%
- viability, T/C (second compound 1 µM, first compound 0.000949 µM): 103%
- viability, T/C (second compound 1 µM, first compound 0.003 µM): 109%
- viability, T/C [39]: 100%
- viability, T/C [40]: 127%
- viability, T/C [41]: 127%
- viability, T/C [42]: 108%
- viability, T/C (second compound 3.16 µM, first compound 0.000949 µM): 108%
- viability, T/C (second compound 3.16 µM, first compound 0.003 µM): 104%
- viability, T/C [43]: 107%
- viability, T/C [44]: 106%
- viability, T/C [45]: 117%
- viability, T/C [46]: 120%
- viability, T/C (second compound 10 µM, first compound 0.000949 µM): 96.5%
- viability, T/C (second compound 10 µM, first compound 0.003 µM): 102%
- viability, T/C [47]: 102%
- viability, T/C [48]: 99.5%
- viability, T/C [49]: 93%
- viability, T/C [50]: 90.1%

The next lines start with the compound.

SMILES: CCN(c1cc(-c2ccc(CN3CCOCC3)cc2)cc(C(=O)NCc2c(C)cc(C)[nH]c2=O)c1C)C1CCOCC1 + Cc1ccccc1N=Nc1ccc(NC(=O)c2ccnn2C)c(C)c1
- IC50 (second compound 0.1 µM): > 3000 nM
- IC50 (second compound 0.316 µM): > 3000 nM
- IC50 (second compound 1 µM): > 3000 nM
- IC50 (second compound 3.16 µM): > 3000 nM
- IC50 (second compound 10 µM): > 3000 nM
- viability, T/C [31]: 105%
- viability, T/C [32]: 118%
- viability, T/C [33]: 112%
- viability, T/C [34]: 108%
- viability, T/C (second compound 0.1 µM, first compound 0.949 µM): 102%
- viability, T/C (second compound 0.1 µM, first compound 3 µM): 102%
- viability, T/C [35]: 95.7%
- viability, T/C [36]: 109%
- viability, T/C [37]: 100%
- viability, T/C [38]: 105%
- viability, T/C (second compound 0.316 µM, first compound 0.949 µM): 103%
- viability, T/C (second compound 0.316 µM, first compound 3 µM): 112%
- viability, T/C [39]: 104%
- viability, T/C [40]: 102%
- viability, T/C [41]: 102%
- viability, T/C [42]: 94.5%
- viability, T/C (second compound 1 µM, first compound 0.949 µM): 100%
- viability, T/C (second compound 1 µM, first compound 3 µM): 112%
- viability, T/C [43]: 91%
- viability, T/C [44]: 94.7%
- viability, T/C [45]: 99.5%
- viability, T/C [46]: 94%
- viability, T/C (second compound 3.16 µM, first compound 0.949 µM): 107%
- viability, T/C (second compound 3.16 µM, first compound 3 µM): 104%
- viability, T/C [47]: 89.9%
- viability, T/C [48]: 91.2%
- viability, T/C [49]: 86.3%
- viability, T/C [50]: 79.8%
- viability, T/C (second compound 10 µM, first compound 0.949 µM): 84.2%
- viability, T/C (second compound 10 µM, first compound 3 µM): 93.2%

SMILES: Cn1ncnc1C1c2n[nH]c(=O)c3cc(F)cc(c23)NC1c1ccc(F)cc1 (stereo not given) + Cc1ccccc1N=Nc1ccc(NC(=O)c2ccnn2C)c(C)c1
- IC50 (second compound 0.1 µM): > 100 nM
- IC50 (second compound 0.316 µM): > 100 nM
- IC50 (second compound 1 µM): > 100 nM
- IC50 (second compound 3.16 µM): > 100 nM
- IC50 (second compound 10 µM): > 100 nM
- viability, T/C (second compound 0.1 µM, first compound 0.000316 µM): 107%
- viability, T/C (second compound 0.1 µM, first compound 0.001 µM): 101%
- viability, T/C (second compound 0.1 µM, first compound 0.00316 µM): 107%
- viability, T/C (second compound 0.1 µM, first compound 0.01 µM): 93.2%
- viability, T/C [1]: 108%
- viability, T/C [2]: 107%
- viability, T/C (second compound 0.316 µM, first compound 0.000316 µM): 98.8%
- viability, T/C (second compound 0.316 µM, first compound 0.001 µM): 113%
- viability, T/C (second compound 0.316 µM, first compound 0.00316 µM): 101%
- viability, T/C (second compound 0.316 µM, first compound 0.01 µM): 104%
- viability, T/C [7]: 107%
- viability, T/C [8]: 103%
- viability, T/C (second compound 1 µM, first compound 0.000316 µM): 109%
- viability, T/C (second compound 1 µM, first compound 0.001 µM): 98.3%
- viability, T/C (second compound 1 µM, first compound 0.00316 µM): 109%
- viability, T/C (second compound 1 µM, first compound 0.01 µM): 116%
- viability, T/C [13]: 105%
- viability, T/C [14]: 118%
- viability, T/C (second compound 3.16 µM, first compound 0.000316 µM): 101%
- viability, T/C (second compound 3.16 µM, first compound 0.001 µM): 101%
- viability, T/C (second compound 3.16 µM, first compound 0.00316 µM): 113%
- viability, T/C (second compound 3.16 µM, first compound 0.01 µM): 105%
- viability, T/C [19]: 119%
- viability, T/C [20]: 112%
- viability, T/C (second compound 10 µM, first compound 0.000316 µM): 95.4%
- viability, T/C (second compound 10 µM, first compound 0.001 µM): 96.7%
- viability, T/C (second compound 10 µM, first compound 0.00316 µM): 101%
- viability, T/C (second compound 10 µM, first compound 0.01 µM): 105%
- viability, T/C [25]: 95.3%
- viability, T/C [26]: 98.7%

SMILES: NS(=O)(=O)OCC1CC(n2ccc3c(NC4CCc5ccccc54)ncnc32)CC1O (stereo not given) + Cc1ccccc1N=Nc1ccc(NC(=O)c2ccnn2C)c(C)c1
- IC50 (second compound 0.1 µM): 853 nM
- IC50 (second compound 0.316 µM): 633 nM
- IC50 (second compound 1 µM): 590 nM
- IC50 (second compound 3.16 µM): 457 nM
- IC50 (second compound 10 µM): 304 nM
- viability, T/C [1]: 106%
- viability, T/C [2]: 97.9%
- viability, T/C [3]: 77.6%
- viability, T/C [4]: 43.7%
- viability, T/C [5]: 23.1%
- viability, T/C [6]: 7.4%
- viability, T/C [7]: 109%
- viability, T/C [8]: 117%
- viability, T/C [9]: 67.1%
- viability, T/C [10]: 38%
- viability, T/C [11]: 19.6%
- viability, T/C [12]: 8.23%
- viability, T/C [13]: 110%
- viability, T/C [14]: 110%
- viability, T/C [15]: 61.4%
- viability, T/C [16]: 38.6%
- viability, T/C [17]: 20.1%
- viability, T/C [18]: 9.57%
- viability, T/C [19]: 103%
- viability, T/C [20]: 97.5%
- viability, T/C [21]: 50.2%
- viability, T/C [22]: 36.3%
- viability, T/C [23]: 13.6%
- viability, T/C [24]: 5.34%
- viability, T/C [25]: 93.7%
- viability, T/C [26]: 80%
- viability, T/C [27]: 43.5%
- viability, T/C [28]: 29.8%
- viability, T/C [29]: 10.1%
- viability, T/C [30]: 4.53%
